System: thymidine dimers in DNA of H358 cells
Test: Nucleotide excision repair assay (thymidine dimer slot blot) after UVC
Format: cell-based
Conditions: 50 μM 1a, 24 hours after 40 J/m^2 UVC (untreated: 50%)
Procedure: Also shown are controls for no treatment (“c” minus 1a) or treatment with 1a only (“c” plus 1a). Each lane represents 60 μg protein. […] Each lane represents 60 μg protein.
For NER, a slot blot immunoassay was used to detect the loss of thymidine dimers from the DNA of UVC treated cells as previously described. An antibody specific for cyclobutane pyrimidine dimers, the major photoproduct produced by UVC treatment, was purchased from Kamiya Biomedical Co (Seattle, Wash.; anti-thymidine dimer, clone KTM53) and used at 1:40 dilution.

CC(C)(COP(=O)(O)OP(=O)(O)OC[C@H]1O[C@@H](n2cnc3c(N)ncnc32)[C@H](O)[C@@H]1OP(=O)(O)O)[C@@H](O)C(=O)NCCC(=O)NCCSCC(=O)NCCCNCCCCN [1a, spermidine[N1]-CoA]
decrease of thymidine dimers: 40%
